Tests used:
[1] = Half life was reported; assay type: ADME
[2] = Compound was evaluated for binding affinity towards L-arginine decarboxylase (ADC) from Escherichia coli in UV time dependent assay.
Escherichia coli [3] = assay: Compound was evaluated for inhibition of L-arginine decarboxylase (ADC) from Escherichia coli in UV time dependent assay.
Escherichia coli [4] = assay: Rate of inactivation against L-arginine decarboxylase (ADC) from Escherichia coli was determined in UV time dependent assay.
bacterium cadaveris [5] = assay: Rate of inactivation against L-lysine decarboxylase (LDC) from Bacterium cadaveris was determined in UV time dependent assay.
[6] = Compound was evaluated for binding affinity against L-lysine decarboxylase (LDC) from Bacterium cadaveris in UV time dependent assay.
bacterium cadaveris [7] = assay: Compound was evaluated for inhibition L-lysine decarboxylase (LDC) from Bacterium cadaveris in UV time dependent assay.

Km (Escherichia coli [3]) | K inact (Escherichia coli [4]) | SMILES | half-life [1] | Ki [2] | K inact (bacterium cadaveris [5]) | Ki [6] | Km (bacterium cadaveris [7])
180 µM | 0.036 min⁻¹ | C=C[C@](N)(CCCNC(=N)N)C(=O)O (racemic) | 19 min | 1800 µM | – | – | –
– | – | C=C[C@](N)(CCCCN)C(=O)O (racemic) | 35 min | – | 0.02 min⁻¹ | 500 µM | 640 µM

Reference: ChEMBL document CHEMBL1129701, “-Vinyllysine and -vinylarginine are time-dependent inhibitors of their cognate decarboxylases” (Bioorg Med Chem Lett, 1996)
